Experimental data reported in PubChem BioAssay AID2791 (The Scripps Research Institute Molecular Screening Center, 2010).
pIC50: −log10 of the molar value. Calls of active or inactive are those of the source.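 How the source made its calls: active means blockers of MCL1 binding to BIM peptide with IC50 at or below 10 micromolar; inactive means IC50 above 10 micromolar.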

What follows are compounds tested against Induced myeloid leukemia cell differentiation protein Mcl-1 (Homo sapiens) (UniProt Q07820) (assay: MCL1 binding to BIM-BH3 peptide, inhibitors, dose response, biochemical, fluorescence polarization, GST-MCL1, FITC-BIM-BH3, powder samples (AID 2791)).
Chain of Induced myeloid leukemia cell differentiation protein Mcl-1 (Homo sapiens) (Q07820 whole entry, looked up): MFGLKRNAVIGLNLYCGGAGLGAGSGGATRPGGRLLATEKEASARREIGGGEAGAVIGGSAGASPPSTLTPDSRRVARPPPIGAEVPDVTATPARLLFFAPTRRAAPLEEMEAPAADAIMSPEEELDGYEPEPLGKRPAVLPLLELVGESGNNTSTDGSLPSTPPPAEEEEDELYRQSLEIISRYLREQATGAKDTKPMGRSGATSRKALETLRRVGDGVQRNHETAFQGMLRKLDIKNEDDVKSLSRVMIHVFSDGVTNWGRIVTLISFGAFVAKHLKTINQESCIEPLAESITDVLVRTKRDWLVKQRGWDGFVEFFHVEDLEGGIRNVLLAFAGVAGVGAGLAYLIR
For CCc1sc(C(C2C(=O)CC(C)(C)CC2=O)C2C(=O)CC(C)(C)CC2=O)cc1[N+](=O)[O-], the IC50 was “inactive”. With Cc1cccc(NC(=O)CNC(=O)c2cccc(-n3cccc3)c2)c1C the IC50 was “inactive”. Compound C=CCN=c1scc(-c2ccco2)n1/N=C/c1ccc(O)c(O)c1O has a pIC50 of 6.07. For O=C(NN=Cc1ccc(-c2ccc(S(=O)(=O)Nc3ncccn3)cc2)o1)c1cc2ccccc2cc1O, the IC50 was > 109 µM (inactive). Work on COc1ccc(-n2cccc2/C=C2\C(=N)N3N=C(c4ccco4)SC3=NC2=O)cc1 yielded a pIC50 of 5.84. In the case of COc1ccc(NC(=O)CN(C)C(=O)c2cc3c(s2)CCC3)cc1, the IC50 was “inactive”. Compound COC(=O)c1ccccc1NCc1cc(=O)oc2cc(O)c(O)cc12 has a pIC50 of 5.30. In the case of O=C1COc2ccc(C(=O)COC(=O)/C=C/c3ccc(Br)o3)cc2N1, the IC50 was > 109 µM (inactive). For CCOc1ccc(NC(=O)c2cccc(-n3cccc3)c2)cc1S(=O)(=O)N1CCOCC1, the IC50 was > 109 µM (inactive). Work on O=C(NN=Cc1cccc(F)c1)c1cc(-c2ccco2)nc2ccccc12 yielded a pIC50 of 5.16. With C=CCn1c(SCC(=O)c2ccc(O)c(O)c2)nnc1-c1cccnc1 the pIC50 was 5.39. With COc1ccc(Cc2nnc(NC(=O)Cc3cccs3)s2)cc1OC the pIC50 was 5.13. Compound Nc1ccc(C(=O)NN=Cc2cc(N=Nc3cccc4ccccc34)ccc2O)cc1 has a pIC50 of 5.23.
